According to patent US20060058310A1, “Remedies for vertebral canal stenosis” (priority 2002, published 2006):
Entries after “also recorded” stand apart in the source; their conditions may differ.

Test system: rat of gait disturbance model by cauda equina compression
Assay: Walking ability (treadmill) in rat gait disturbance model by cauda equina compression
Assay type: in vivo
Details: spinal canal stenosis model, administered orally for 11 days after the operation, vs negative control (carboxymethylcellulose or toragacanth gum), Dunnett's test, FIG. 1 and FIG. 2
Excerpt: Improvement effect of this invented compound in a rat model of gait disturbance model by cauda equina compression:
<Method of Making an Animal Model>
A rat of gait disturbance model by cauda equina compression was made by the method of Takenobu et al. (J. Neurosci. Methods, 104(2), 191-198 (2002)). Namely, a rat was anesthetized by sodium pentobarbital, removed its dorsal hair and then was fixed its body in the prone position. After disinfection of the back with Chlorhexidine gluconate (5% Hibiten Liquid: Sumitomo Pharmaceuticals), the lumbar was incised along the midline to expose the spine. After excision of the fifth lumbar spinous process, silicon rubber 1×4×1.25 mm (height×length×width) were inserted into the fourth and the sixth lumbar spinal canals from small holes of vertebral arch which was made by mini-drill. […]
The rats were put on the running belt, and adapted to the condition where the grid was sent an electric current (0.04 mA-4 mA) for three minutes or more. […] The distance between the point to walk and the point to give up walk, in other words, the point where it is impossible for them to walk even though the stimulation (sound, contact and electricity) to make them walk was given, was measured with the mileometer built into the equipment. […] The results obtained from the compounds- and negative control-groups were analyzed by the Dunnett's multiple comparison test (*P<0.05). […]

How did the “improvement of walking dysfunction (walking distance on treadmill)” value turn out when `O=C1C[C@@]2(C(=O)N1)C(=O)N(Cc1ccc(Br)cc1F)C(=O)c1cccn12` [Compound B, (R)-2-(4-bromo-2-fluorobenzyl)spiro[1,2,3,4-tetrahydropyrrolo[1,2-a]pyrazine-4,3′-pyrrolidine]-1,2′,3,5′-tetrone] was run?
Its value is “improved the pathology; also recorded: improved the walking dysfunction”.
